Reference: ChEMBL document CHEMBL5036339, “Synthesis and biological evaluation of indole-based peptidomimetics as antibacterial agents against Gram-positive bacteria” (Eur J Med Chem, 2021)
In brackets after ≈: the same amount, converted by molar mass. Activity calls are given as the source filed them. The rule behind the calls is not given here.

Columns and labels:
Staphylococcus aureus [1] = experiment: Antibacterial activity against Staphylococcus aureus ATCC29213 assessed as reduction in bacterial growth; format: functional
Staphylococcus aureus [2] = experiment: Antibacterial activity against methicillin-resistant Staphylococcus aureus N315 assessed as reduction in bacterial growth; format: functional
Staphylococcus aureus [3] = experiment: Antibacterial activity against methicillin-resistant Staphylococcus aureus NCTC 10442 assessed as reduction in bacterial growth; format: functional
Escherichia coli = experiment: Antibacterial activity against Escherichia coli ATCC25922 assessed as reduction in bacterial growth; format: functional
[4] = Hemolytic activity in rabbit erythrocytes assessed as concentration required to cause 50% hemolysis; format: ADME, cell-based, Oryctolagus cuniculus, Erythrocyte
Staphylococcus aureus [5] = experiment: Bactericidal activity against Staphylococcus aureus NCTC 10442 assessed as log reduction in bacterial growth at 4X MIC measured within 0.5 hr by time-kill kinetic assay; format: functional; conditions: time hrs <=0.5
Staphylococcus aureus [6] = experiment: Bactericidal activity against Staphylococcus aureus NCTC 10442 assessed as log reduction in bacterial growth at 8X MIC measured within 0.5 hr by time-kill kinetic assay; format: functional
Staphylococcus aureus [7] = experiment: Antibacterial activity against Staphylococcus aureus ATCC29213 assessed as reduction in bacterial growth in presence of sodium salt; format: functional
Staphylococcus aureus [8] = experiment: Antibacterial activity against Staphylococcus aureus ATCC29213 assessed as reduction in bacterial growth in presence of potassium salt; format: functional
Staphylococcus aureus [9] = experiment: Antibacterial activity against Staphylococcus aureus ATCC29213 assessed as reduction in bacterial growth in presence of calcium salt; format: functional
Staphylococcus aureus [10] = experiment: Antibacterial activity against Staphylococcus aureus ATCC29213 assessed as reduction in bacterial growth in presence of magnesium salt; format: functional
Staphylococcus aureus [11] = experiment: Antibacterial activity against Staphylococcus aureus ATCC29213 assessed as reduction in bacterial growth in presence of zinc salt; format: functional
Staphylococcus aureus [12] = experiment: Antibacterial activity against Staphylococcus aureus ATCC29213 assessed as reduction in bacterial growth in presence of ferrous salt; format: functional
Staphylococcus aureus [13] = experiment: Antibacterial activity against Staphylococcus aureus ATCC29213 assessed as reduction in bacterial growth in presence of ferric salt; format: functional
Staphylococcus aureus [14] = experiment: Antibacterial activity against methicillin-resistant Staphylococcus aureus N315 assessed as reduction in bacterial growth in presence of sodium salt; format: functional
Staphylococcus aureus [15] = experiment: Antibacterial activity against methicillin-resistant Staphylococcus aureus N315 assessed as reduction in bacterial growth in presence of potassium salt; format: functional
Staphylococcus aureus [16] = experiment: Antibacterial activity against methicillin-resistant Staphylococcus aureus N315 assessed as reduction in bacterial growth in presence of calcium salt; format: functional
Staphylococcus aureus [17] = experiment: Antibacterial activity against methicillin-resistant Staphylococcus aureus N315 assessed as reduction in bacterial growth in presence of magnesium salt; format: functional
Staphylococcus aureus [18] = experiment: Antibacterial activity against methicillin-resistant Staphylococcus aureus N315 assessed as reduction in bacterial growth in presence of zinc salt; format: functional
Staphylococcus aureus [19] = experiment: Antibacterial activity against methicillin-resistant Staphylococcus aureus N315 assessed as reduction in bacterial growth in presence of ferrous salt; format: functional
Staphylococcus aureus [20] = experiment: Antibacterial activity against methicillin-resistant Staphylococcus aureus N315 assessed as reduction in bacterial growth in presence of ferric salt; format: functional
Staphylococcus aureus [21] = experiment: Antibacterial activity against methicillin-resistant Staphylococcus aureus NCTC 10442 assessed as reduction in bacterial growth in presence of sodium salt; format: functional
Staphylococcus aureus [22] = experiment: Antibacterial activity against methicillin-resistant Staphylococcus aureus NCTC 10442 assessed as reduction in bacterial growth in presence of potassium salt; format: functional
Staphylococcus aureus [23] = experiment: Antibacterial activity against methicillin-resistant Staphylococcus aureus NCTC 10442 assessed as reduction in bacterial growth in presence of calcium salt; format: functional
Staphylococcus aureus [24] = experiment: Antibacterial activity against methicillin-resistant Staphylococcus aureus NCTC 10442 assessed as reduction in bacterial growth in presence of magnesium salt; format: functional
Staphylococcus aureus [25] = experiment: Antibacterial activity against methicillin-resistant Staphylococcus aureus NCTC 10442 assessed as reduction in bacterial growth in presence of zinc salt; format: functional
Staphylococcus aureus [26] = experiment: Antibacterial activity against methicillin-resistant Staphylococcus aureus NCTC 10442 assessed as reduction in bacterial growth in presence of ferrous salt; format: functional
Staphylococcus aureus [27] = experiment: Antibacterial activity against methicillin-resistant Staphylococcus aureus NCTC 10442 assessed as reduction in bacterial growth in presence of ferric salt; format: functional
Cell membrane = experiment: Induction of membrane disruption in […] assessed as increase in red fluorescence at 12.48 ug/ml by SYTO 9/PI staining based flourescence microscopy method; format: functional; conditions: dose 12.48 µg/ml
[28] = Cytotoxicity against mouse NCTC clone 929 cells assessed as reduction in cell viability at 50 ug/ml after 24 hrs by CCK8 assay; format: cell-based; conditions: nctc clone 929, 24 h, at 50 µg/mL
J774.A1 [29] = experiment: Cytotoxicity against mouse J774.A1 cells assessed as reduction in cell viability at 50 ug/ml after 24 hrs by CCK8 assay; format: cell-based; conditions: j774.a1, 24 h, at 50 µg/mL
HEK293 [30] = experiment: Cytotoxicity against human HEK293 cells assessed as reduction in cell viability at 50 ug/ml after 24 hrs by CCK8 assay; format: cell-based; conditions: hek293, 24 h, at 50 µg/mL
Staphylococcus aureus [31] = experiment: In vivo antibacterial activity against Staphylococcus aureus ATCC29213 in mouse bacterial keratitis model assessed as log reduction in bacterial load in infected cornea at 0.5%,TOP after 24 hour infection; format: functional, organism-based
Staphylococcus aureus [32] = experiment: Bactericidal activity against Staphylococcus aureus NCTC 10442 assessed as log reduction in bacterial growth at 2X MIC measured within 24 hr by time-kill kinetic assay; format: functional
Staphylococcus aureus [33] = experiment: Bactericidal activity against Staphylococcus aureus NCTC 10442 assessed as log reduction in bacterial growth at 1X MIC measured within 24 hr by time-kill kinetic assay; format: functional
[34] = Cytotoxicity against mouse NCTC clone 929 cells assessed as reduction in cell viability at 3.125 ug/ml after 24 hrs by CCK8 assay; format: cell-based; conditions: nctc clone 929, 24 h, at 3.125 µg/mL
[35] = Cytotoxicity against mouse NCTC clone 929 cells assessed as reduction in cell viability at 6.25 ug/ml after 24 hrs by CCK8 assay; format: cell-based; conditions: nctc clone 929, 24 h, at 6.25 µg/mL
[36] = Cytotoxicity against mouse NCTC clone 929 cells assessed as reduction in cell viability at 12.5 ug/ml after 24 hrs by CCK8 assay; format: cell-based; conditions: nctc clone 929, 24 h, at 12.5 µg/mL
[37] = Cytotoxicity against mouse NCTC clone 929 cells assessed as reduction in cell viability at 25 ug/ml after 24 hrs by CCK8 assay; format: cell-based; conditions: nctc clone 929, 24 h, at 25 µg/mL
J774.A1 [38] = experiment: Cytotoxicity against mouse J774.A1 cells assessed as reduction in cell viability at 3.125 ug/ml after 24 hrs by CCK8 assay; format: cell-based; conditions: j774.a1, 24 h, at 3.125 µg/mL
J774.A1 [39] = experiment: Cytotoxicity against mouse J774.A1 cells assessed as reduction in cell viability at 6.25 ug/ml after 24 hrs by CCK8 assay; format: cell-based; conditions: j774.a1, 24 h, at 6.25 µg/mL
J774.A1 [40] = experiment: Cytotoxicity against mouse J774.A1 cells assessed as reduction in cell viability at 12.5 ug/ml after 24 hrs by CCK8 assay; format: cell-based; conditions: j774.a1, 24 h, at 12.5 µg/mL
J774.A1 [41] = experiment: Cytotoxicity against mouse J774.A1 cells assessed as reduction in cell viability at 25 ug/ml after 24 hrs by CCK8 assay; format: cell-based; conditions: j774.a1, 24 h, at 25 µg/mL
HEK293 [42] = experiment: Cytotoxicity against human HEK293 cells assessed as reduction in cell viability at 3.125 ug/ml after 24 hrs by CCK8 assay; format: cell-based; conditions: hek293, 24 h, at 3.125 µg/mL
HEK293 [43] = experiment: Cytotoxicity against human HEK293 cells assessed as reduction in cell viability at 6.25 ug/ml after 24 hrs by CCK8 assay; format: cell-based; conditions: hek293, 24 h, at 6.25 µg/mL
HEK293 [44] = experiment: Cytotoxicity against human HEK293 cells assessed as reduction in cell viability at 12.5 ug/ml after 24 hrs by CCK8 assay; format: cell-based; conditions: hek293, 24 h, at 12.5 µg/mL
HEK293 [45] = experiment: Cytotoxicity against human HEK293 cells assessed as reduction in cell viability at 25 ug/ml after 24 hrs by CCK8 assay; format: cell-based; conditions: hek293, 24 h, at 25 µg/mL
Staphylococcus aureus [46] = experiment: Induction of drug resistance in Staphylococcus aureus ATCC29213 assessed as reduction in bacterial growth at 0.5 times MIC measured after 24 hr; format: functional, organism-based

CC(C)=CCC/C(C)=C/Cn1cc(CC(=O)NCCN(CCNC(=N)N)CCNC(=N)N)c2ccccc21
MIC (Staphylococcus aureus [1]): 1.56 µg/mL (≈ 2.98 µM) | MIC (Staphylococcus aureus [2]): 1.56 µg/mL (≈ 2.98 µM) | MIC (Staphylococcus aureus [3]): 1.56 µg/mL (≈ 2.98 µM) | MIC (Escherichia coli): 12.5 µg/mL (≈ 23.9 µM) | HC50 [4]: 226 µg/mL | log reduction (Staphylococcus aureus [5]): 3 log10 CFU/mL | Activity (Staphylococcus aureus [6]): 3 CFU | MIC (Staphylococcus aureus [7]): 1.56 µg/mL | MIC (Staphylococcus aureus [8]): 1.56 µg/mL | MIC (Staphylococcus aureus [9]): 1.56 µg/mL | MIC (Staphylococcus aureus [10]): 1.56 µg/mL | MIC (Staphylococcus aureus [11]): 1.56 µg/mL | MIC (Staphylococcus aureus [12]): 1.56 µg/mL | MIC (Staphylococcus aureus [13]): 1.56 µg/mL | MIC (Staphylococcus aureus [14]): 1.56 µg/mL | MIC (Staphylococcus aureus [15]): 1.56 µg/mL | MIC (Staphylococcus aureus [16]): 1.56 µg/mL | MIC (Staphylococcus aureus [17]): 1.56 µg/mL | MIC (Staphylococcus aureus [18]): 1.56 µg/mL | MIC (Staphylococcus aureus [19]): 1.56 µg/mL | MIC (Staphylococcus aureus [20]): 1.56 µg/mL | MIC (Staphylococcus aureus [21]): 1.56 µg/mL | MIC (Staphylococcus aureus [22]): 1.56 µg/mL | MIC (Staphylococcus aureus [23]): 1.56 µg/mL | MIC (Staphylococcus aureus [24]): 1.56 µg/mL | MIC (Staphylococcus aureus [25]): 1.56 µg/mL | MIC (Staphylococcus aureus [26]): 1.56 µg/mL | MIC (Staphylococcus aureus [27]): 1.56 µg/mL | Activity (Cell membrane): Active | Activity [28]: 64.79% | Activity (J774.A1 [29]): 56% | Activity (HEK293 [30]): 68.26% | Activity (Staphylococcus aureus [31]): Active | Activity (Staphylococcus aureus [32]): 3 CFU | Activity (Staphylococcus aureus [33]): 3 CFU | Activity [34]: 87.85% | Activity [35]: 79.43% | Activity [36]: 72.66% | Activity [37]: 71.16% | Activity (J774.A1 [38]): 100.34% | Activity (J774.A1 [39]): 95.8% | Activity (J774.A1 [40]): 85.85% | Activity (J774.A1 [41]): 77.46% | Activity (HEK293 [42]): 94.48% | Activity (HEK293 [43]): 92.66% | Activity (HEK293 [44]): 84.69% | Activity (HEK293 [45]): 76.79% | Activity (Staphylococcus aureus [46]): inactive
